Assay results: patent US20240172750A1, “5-Fluoro-4-Imino-3-Methyl-1-Tosyl-3,4-Dihydropyrimidin-2(1H)-One for Controlling Plant Diseases” (Adama Makhteshim Ltd., priority 2021, published 2024)

Legend:
[1] = test system: Pseudoperonospora cubensis (downy mildew); experiment: Glasshouse trial, downy mildew in cucumber, foliar treatment; type: in vivo; conditions: cucumber (Bosco); 250 OD at 100, 125, 150, 200 g ai/ha, 3 applications; 21 DA-C
Description: The trial was carried out in a commercial glasshouse in Vittoria (RG)—Sicily region (Southern Italy) to evaluate the efficacy against Pseudoperonospora cubensis (downy mildew) and the selectivity on cucumber (Bosco variety) of ADF-16 250 OD at 100, 125, 150 and 200 g ai/ha in comparison to AIRONE PIU at 630 g ai/ha and EQUATION PRO at 21 g ai/ha.
Each plot (2 m×5 m, 2 rows per plot) consisted of at least 10 plants and 4 replicates per treatment were carried out. The soil used for the trial was a mix of peat and perlite. 3 applications were carried out as follows: A: early curative (disease symptoms lower than 5%), B: 7-10 days from A and C: 7-10 days from B. The corresponding treatments dates were: 16 Nov. 2020 (BBCH 64), 23 Nov. 2020 (BBCH 65) and 30th of November (BBCH 67)
The application was carried out with a backpack sprayer OleomacSP126 and a water volume of 1000 L/ha.
Phytotoxicity, if any, was assessed 7, 14 and 21 days form each application and starting from the first symptoms the percentage of affected leaf area (% severity) as well as the percentage of affected leaves (% incidence) was measured.

Phytophtora infestans = type: in vivo; conditions: potato; 150 g ai/ha vs CUPRIZOL S 330 g ai/ha
Rabbit = experiment: Ecotoxicity: mammals, long-term; type: in vivo
Source text: (§1) The ecotoxicity of flumetylsulforim was investigated in numerous studies in accordance with the strict requirements for the approval of active substances in the EU.

Ecotoxicity: fish, acute = conditions: in vivo, Rainbow trout
Source text: as §1

Rainbow trout = experiment: Ecotoxicity: fish, long-term; type: in vivo
Source text: as §1

[2] = Ecotoxicity: aquatic invertebrates, acute; type: in vivo; conditions: in vivo, Daphnia magna
Source text: as §1

Daphnia magna = experiment: Ecotoxicity: aquatic invertebrates, acute; type: in vivo; conditions: wheats and barley at 2 × 100 g/ha
Source text: as §1

[3] = Ecotoxicity: algae, long-term; type: in vivo; conditions: in vivo, Green alga
Source text: as §1

Green alga = experiment: Ecotoxicity: algae, long-term; type: in vivo; conditions: wheats and barley at 2 × 100 g/ha
Source text: as §1

Honeybee [4] = experiment: Ecotoxicity: honeybee, acute oral; type: in vivo
Source text: as §1

Honeybee [5] = experiment: Ecotoxicity: honeybee, chronic oral; type: in vivo
Source text: as §1

Parasitoid wasp = experiment: Ecotoxicity: non-target arthropods, reproduction; type: in vivo
Source text: as §1

Predatory mite = experiment: Ecotoxicity: non-target arthropods, reproduction; type: in vivo; conditions: wheats and barley at 2 × 100 g/ha
Source text: as §1

Eisenia fetida = experiment: Ecotoxicity: earthworms, long-term; type: in vivo
Source text: as §1

[6] = test system: Soil microbial activity (Nitrogen activity); experiment: Ecotoxicity: soil microbial activity, long-term
Source text: as §1

Carrot = experiment: Non-target terrestrial plants, vegetative vigour; type: in vivo
Source text: as §1

Common oat = experiment: Non-target terrestrial plants, vegetative vigour; type: in vivo
Source text: as §1

Cucumber = experiment: Non-target terrestrial plants, vegetative vigour; type: in vivo
Source text: as §1

Maize = experiment: Non-target terrestrial plants, vegetative vigour; type: in vivo
Source text: as §1

Oil seed rape = experiment: Non-target terrestrial plants, vegetative vigour; type: in vivo
Source text: as §1

Onion = experiment: Non-target terrestrial plants, vegetative vigour; type: in vivo
Source text: as §1

Ryegrass = experiment: Non-target terrestrial plants, vegetative vigour; type: in vivo
Source text: as §1

Soybean = experiment: Non-target terrestrial plants, vegetative vigour; type: in vivo
Source text: as §1

Sugar beet = experiment: Non-target terrestrial plants, vegetative vigour; type: in vivo
Source text: as §1

Sunflower = experiment: Non-target terrestrial plants, vegetative vigour; type: in vivo
Source text: as §1

[7] = wheats and barley at 2 × 100 g/ha

Description for Cercospora kikushi: The trial is carried out in open field and no artificial inoculation is performed.
To test for fungicidal control against the late season disease, each plot (3 m×5 m) is sprayed with one of the treatments from Table 17. Each treatment is made of 4 replicates.
Three applications are made, the first approximately 14 days before flowering followed by a second one at R1 and the third at R1+14 days. A fourth application is considered based on the development of the disease.
Assessments are done before all sprays and at 7, 14 and 21 days after the last spray. The whole plot is assessed considering the 3 plant parts (bottom, mid and upper). The final grade is the mean of the 3 scores (bottom, mid and upper).
The whole plot is assessed for defoliation. The defoliation assessment takes place at R6-R7 stage when the untreated control reaches 80 to 90% defoliation. The harvest assessment is done from the middle of the plot covering at least 8 m 2/plot.
Description for Corynespora cassiicola: The inoculation of Corynespora cassiicola and Colletotrichum dematium var. truncatum is done with infected leaves from the field few days after the application.
To test for fungicidal control against the two necrotrophic diseases, the soybean plants, grown in pots, are sprayed at V2 with each of the above treatments. 5 pots with 3 soybean plants each are considered, each treatment counts for 4 replicates.
Between 14 and 21 days from the inoculation the severity (%) of the infection is assessed.
Description for Ramularia areola: The objective of the trial is to assess the fungicidal effect of ADF-16 against Ramularia areola on cotton, compared to an untreated control and a reference product.
ADF-16 is tested at different doses, namely at 50, 100, 150 and 200 g ai/ha as depicted in the table below.
Ramularia areola is artificially inoculated by spraying the conidia on the plants, previously sprayed with the fungicide.
To test for fungicidal control of Ramularia areola, the cotton plants, grown in pots, are sprayed at first true leaf fully open with each of the above treatments. 5 pots with 3 cotton plants each are considered, each treatment counts for 4 replicates.
Between 25 and 30 days from the inoculation the severity (%) of the infection is assessed.

SMILES: Cc1ccc(S(=O)(=O)n2cc(F)c(=N)n(C)c2=O)cc1 [compound of formula I, 5-fluoro-4-imino-3-methyl-1-tosyl-3,4-dihydropyrimidin-2(1H)-one]
- control of the disease (downy mildew) [1]: significant control of the disease
- control versus reference treatment (Phytophtora infestans): significant better control than the reference treatment
- NOED (Rabbit): NOED = 15 mg/kg bw/d
- Risk at current use pattern (Rabbit; [7]): Acceptable
- LC50 (Ecotoxicity: fish, acute): 5.41 µg/mL
- NOEC (Rainbow trout): NOEC = 0.128 mg/L
- Risk at current use pattern (Rainbow trout; [7]): Acceptable
- EC50 [2]: > 10 µg/mL
- Risk at current use pattern (Daphnia magna): Acceptable
- EC50 [3]: > 10 µg/mL
- Risk at current use pattern (Green alga): Acceptable
- LD50 (Honeybee [4]): LD50 > 3.727 μg/bee
- LD50 (Honeybee [5]): LD50 = 16.0 μg/bee/d
- LR50 (Parasitoid wasp): LR50 > 189 g/ha
- Risk at current use pattern (Parasitoid wasp; [7]): Acceptable
- Risk at current use pattern (Predatory mite): Acceptable
- NOEC (Eisenia fetida): NOEC = 309 mg/kg dws
- Risk at current use pattern (Eisenia fetida; [7]): Acceptable
- Ecotoxicity endpoint (nitrogen activity) ([6]; soil microbial activity): >10.3 mg/kg dws
- Risk at current use pattern ([6]; soil microbial nitrogen activity, wheats and barley at 2 × 100 g/ha): Acceptable
- ER50 (Carrot): ER50 > 189 g/ha
- Risk at current use pattern (Carrot; [7]): Acceptable
- ER50 (Common oat): ER50 > 189 g/ha
- Risk at current use pattern (Common oat; [7]): Acceptable
- ER50 (Cucumber): ER50 > 189 g/ha
- Risk at current use pattern (Cucumber; [7]): Acceptable
- ER50 (Maize): ER50 > 189 g/ha
- Risk at current use pattern (Maize; [7]): Acceptable
- ER50 (Oil seed rape): ER50 > 189 g/ha
- Risk at current use pattern (Oil seed rape; [7]): Acceptable
- ER50 (Onion): ER50 > 189 g/ha
- Risk at current use pattern (Onion; [7]): Acceptable
- ER50 (Ryegrass): ER50 > 189 g/ha
- Risk at current use pattern (Ryegrass; [7]): Acceptable
- ER50 (Soybean): ER50 > 189 g/ha
- Risk at current use pattern (Soybean; [7]): Acceptable
- ER50 (Sugar beet): ER50 > 189 g/ha
- Risk at current use pattern (Sugar beet; [7]): Acceptable
- ER50 (Sunflower): ER50 > 189 g/ha
- Risk at current use pattern (Sunflower; [7]): Acceptable
- control of Ramularia areola (Ramularia areola; cotton, 50-200 g ai/ha): effectively controls
- phytotoxicity (Ramularia areola; in vivo): no significant phytotoxicity
- phytotoxicity (Corynespora cassiicola; in vivo): no significant phytotoxicity
- control of Corynespora cassiicola (Corynespora cassiicola; soybean, 50-200 g ai/ha): effectively controls
- phytotoxicity (Cercospora kikushi; in vivo): no significant phytotoxicity
- control of Cercospora kikushi (Cercospora kikushi; soybean, 50, 100 and 200 g ai/ha): effectively controls
